Experiment [1] relates to chicken Opn4-1 L207^5.42F mutant. In words: GsX GloSensor assay with Gsα/q11. It is filed as cell-based. The note with it: 16.7 μM AA92593, COS-1 cells. An excerpt: (§1) Similar to human and mouse melanopsins (Fig. 5, F and H, I, M, and N), the introduction of a Phe residue at position 207^5.42 in Xenopus Opn4x and Chicken Opn4-1 increased their susceptibility of the melanopsins for AA92593 by ∼53% and ∼37%, respectively, although the substitutions reduced light-dependent cAMP responses by the melanopsins (Fig. 6, C and F, G and H). […]
(§2) For GloSensor assay, opsins, GloSensor assay sensor (coded by pGlo-22F), and NanoBiT-tagged G proteins were transiently expressed in COS-1 cells (kindly provided from Dr David Farrens, Oregon Health and Science University) using PEI as described previously ([24], [52]). […] For GFP-fluorescence microscopy, a 35-mm cell culture dish (IWAKI) was transfected with 2 μg melanopsin-GFP plasmid and 8 μg PEI in 400 μl Opti-mem and 1.2 ml D-MEM. […]
(§3) The transfected COS-1 cells were incubated at 37 °C, 5% CO2 for 2 days, and the medium was aspirated and exchanged with 50 μl of HBSS (145 mM NaCl, 10 mM D-glucose, 5 mM KCl, 1 mM MgCl2, 1.7 mM CaCl2, 1.5 mM NaHCO3, 10 mM Hepes, pH 7.4), containing 33.3, 20, 10, 2, 0.2, 0.02, 0.002, or 0 μM AA92593, 0.5% dimetyl sulfoxide (DMSO), and 4% (vol/vol) GloSensor cAMP reagent stock solution. […] Then, the cells were incubated at room temperature for 1 h, and luminescence changes were monitored. […] Luminescence was measured using GM-2000 or GM-3510 microplate reader (Promega). […]

Experiment [2] relates to Xenopus Opn4x L207^5.42F mutant. The experiment is described as follows: GsX GloSensor assay with Gsα/q11. Type of experiment: cell-based. The note with it: 16.7 μM AA92593, COS-1 cells.
Text: as §1, §2, §3

Structures are written as SMILES.

On to `COc1ccc(S(=O)(=O)N2CCCCC2)cc1C` [AA92593], for which the “increase in susceptibility for AA92593 vs WT” value is about 37% in experiment [1] and about 53% in experiment [2].

For the origin of these results see paper PMC12051620, “Molecular basis underlying the specificity of an antagonist AA92593 for mammalian melanopsins” (The Journal of Biological Chemistry, 2025).
